{"source": "patent US20220105183A1", "about": "“MICRO-NANO STRUCTURE FORMED BY SELF-ASSEMBLING ORGANIC SMALL MOLECULE COMPOUND AND USE THEREOF” (Qingdao University of Science and Technology, priority 2018, published 2022)", "assay": "Photoacoustic imaging test in aqueous solution", "assay_type": "physicochemical", "conditions": "5, 10, 20 and 40 μM in water", "method": "In the experimental group, 2.5, 5, 10 and 20 μL of Compound II-1 (concentrations of 5, 10, 20 and 40 μM, respectively) were respectively added to 1 mL of water, and the test solution was placed in the prosthesis for photoacoustic imaging test."}
{"smiles": "CCN1C(=CC=C2CCCC(C=CC3=C(C#N)C(=C(C#N)C#N)OC3(C)C)=C2Cl)C(C)(C)c2ccccc21", "note": "[II-1]", "values": [{"measurement": "photoacoustic signal against concentration", "result": "the photoacoustic signal increased with the increase of the concentration of Compound II-1"}, {"measurement": "wavelength of the strongest photoacoustic signal", "result": "710-750 nm"}]}
